Reference: patent US20240279176A1, “SUBSTITUTED TRICYCLIC HETEROCYCLIC COMPOUNDS AS METALLO-BETA-LACTAMASE INHIBITORS” (priority 2021, published 2024)
Where two headings read alike, the source gives them in different places.

Assays:
[1] = system: Klebsiella pneumoniae ATCC BAA-2146; test: Checkerboard synergy assay in combination with Imipenem; assay type: cell-based; settings: K. pneumoniae ATCC BAA-2146; for Fold reduction in Imipenem MIC in the presence of compounds (μg/mL) 4: compound at 4 μg/mL; for Fold reduction in Imipenem MIC in the presence of compounds (μg/mL) 8: compound at 8 μg/mL; for Fold reduction in Imipenem MIC in the presence of compounds (μg/mL) 16: compound at 16 μg/mL; for Fold reduction in Imipenem MIC in the presence of compounds (μg/mL) 32: compound at 32 μg/mL
Description: (§1) The strain included in the study was Klebsiella pneumoniae ATCC BAA-2146 (Himedia®, India) with presence of New Delhi metallo-β-lactamase (NDM-1) gene. The quality control reference strains Escherichia coli ATCC 25922 and Pseudomonas aeruginosa ATCC 27853 were procured from Himedia®, India.
(§2) The fold modulation activity of test compounds, in combination with Imipenem or Meropenem, was checked against Klebsiella pneumoniae ATCC BAA-2146 strain by the broth-microdilution checkerboard synergy assay. The plates contained 5×10^5 CFU/mL bacterial inocula and 2-fold serial dilutions of the antibiotics (128-2 μg/mL) as well as test compounds (32-4 μg/mL) in a total volume of 200 μL of CA-MHB. Dimethyl sulfoxide (DMSO, ≤2.5%) was included as vehicle control. Following 16-18 h of incubation at 37° C., the MICs of antibiotics as well as drug combinations were visually inspected.

[2] = system: Klebsiella pneumoniae ATCC BAA-2146; test: Minimum inhibitory concentration (MIC), broth-microdilution (CLSI); assay type: cell-based; settings: ATCCBAA2146, compound alone, K. pneumoniae ATCC BAA-2146, read-out: Intrinsic MIC
Description: as §1
MIC values were identified through broth-microdilution in sterilized 96-well polystyrene flat-bottom microtitre plates (Cole-Parmer®) according to the guideline of the Clinical and Laboratory Standards Institute (CLSI) (CLSI; Methods for dilution antimicrobial susceptibility tests for bacteria that grow aerobically; Clinical Laboratory Standards Institute, M07-A09, 2012). This method involves the use of BBL™ Cation-adjusted Mueller-Hinton II Broth (CA-MHB; BD) and the strain (Klebsiella pneumoniae ATCC BAA-2146) concentration was adjusted to 5×10^5 CFU/mL. After 16-18 h of incubation at various concentrations of Imipenem, Meropenem (Alfa Aesar), or test compounds at 37° C., MIC was defined as the lowest concentration of antibiotic or test compound with no visible growth.

[3] = target: NDM-1 (Klebsiella pneumoniae, UniProt C7C422); test: Enzyme activity: IC50 in fluorescence assay with cephalosporin substrate FC5; assay type: biochemical; settings: 50 pM NDM-1, 1.5 μM FC5, 10 min pre-incubation
Method: (§3) The Class B beta-lactamases activities were measured in the presence of the test inhibitors in a fluorescence assay against an in-house synthesized fluorescent cephalosporin substrate FC5 (Berkel, et. al. J. Med. Chem. 2013, 56(17), 6945). The enzymes (NDM-1, IMP-1) and the substrate were diluted in 20 mM HEPES, pH 7.4, supplemented with 300 mM NaCl and 10 μM ZnSO4. In the assay, the final concentration of enzyme was 50 pM, and 100 pM for NDM-1, and IMP-1 respectively, and the final concentration of FC5 was 1.5 μM for NDM-1 and 10 μM for IMP-1. The test inhibitors/compounds were dissolved in dimethylsulfoxide (DMSO) and diluted in the assay with assay buffer (20 mM HEPES, pH 7.4, supplemented with 5% DMSO, 300 mM NaCl and 10 μM ZnSO4), resulting in a final concentration range of 0.008 μM to 25 μM. The assays were performed in 96-well microplate (flat bottom, black). The test inhibitors were incubated with the MBL enzyme for 10 min at room temperature, followed by addition the substrate and the fluorescence was recorded immediately (λex 380 nm, λem 460 nm) on a microplate reader. Using the initial velocity data plotted against the inhibitor concentration, the half-maximal inhibitory concentrations were calculated by an IC50 curve-fitting model in GraphPad Prism 9 software.

[4] = target: IMP-1 (Serratia marcescens, UniProt P52699); test: as above; assay type: biochemical; settings: 100 pM IMP-1, 10 μM FC5, 10 min pre-incubation
Method: as §3

[5] = system: Klebsiella pneumoniae ATCC BAA-2146; test: Checkerboard synergy assay in combination with Meropenem; assay type: cell-based; settings: K. pneumoniae ATCC BAA-2146; for Fold reduction in meropenem MIC in the presence of compounds (μg/mL) 4: compound at 4 μg/mL; for Fold reduction in meropenem MIC in the presence of compounds (μg/mL) 8: compound at 8 μg/mL; for Fold reduction in meropenem MIC in the presence of compounds (μg/mL) 16: compound at 16 μg/mL; for Fold reduction in meropenem MIC in the presence of compounds (μg/mL) 32: compound at 32 μg/mL
Description: as §1, §2

Sequence of NDM-1 (C7C422 29-270, looked up): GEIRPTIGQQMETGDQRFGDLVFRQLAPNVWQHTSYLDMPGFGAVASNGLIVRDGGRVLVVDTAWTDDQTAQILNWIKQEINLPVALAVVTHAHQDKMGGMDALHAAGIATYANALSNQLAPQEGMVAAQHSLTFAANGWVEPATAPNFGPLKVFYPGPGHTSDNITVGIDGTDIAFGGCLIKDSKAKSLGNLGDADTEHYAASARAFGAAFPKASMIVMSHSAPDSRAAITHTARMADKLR
Sequence of IMP-1 (P52699 19-246, looked up, species assumed): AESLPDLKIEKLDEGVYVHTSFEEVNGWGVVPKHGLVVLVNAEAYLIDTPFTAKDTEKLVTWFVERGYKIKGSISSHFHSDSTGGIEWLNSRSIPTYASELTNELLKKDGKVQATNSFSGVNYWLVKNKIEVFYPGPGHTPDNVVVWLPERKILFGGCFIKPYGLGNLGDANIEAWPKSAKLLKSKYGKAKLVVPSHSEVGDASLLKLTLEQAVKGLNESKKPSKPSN

Row | Fold reduction in Imipenem MIC in the presence of compounds (μg/mL) 4 [1] [fold] | Fold reduction in Imipenem MIC in the presence of compounds (μg/mL) 8 [1] [fold] | Fold reduction in Imipenem MIC in the presence of compounds (μg/mL) 16 [1] [fold] | Fold reduction in Imipenem MIC in the presence of compounds (μg/mL) 32 [1] [fold] | MIC ([2]; Imipenem series) [µg/mL] | MIC ([2]; meropenem series) [µg/mL] | IC50 [3] [µM] | IC50 [4] [µM] | Fold reduction in meropenem MIC in the presence of compounds (μg/mL) 4 [5] [fold] | Fold reduction in meropenem MIC in the presence of compounds (μg/mL) 8 [5] [fold] | Fold reduction in meropenem MIC in the presence of compounds (μg/mL) 16 [5] [fold] | Fold reduction in meropenem MIC in the presence of compounds (μg/mL) 32 [5] [fold] | SMILES
1 | 2 | 4 | 4 | 8 | > 128 | > 128 | 0.323 | 3.3 | 2 | 4 | 4 | 4 | O=C(O)c1[nH]c2c(c1-c1cccc(F)c1F)CCc1ccccc1-2 [Example 47, 3-(2,3-difluorophenyl)-4,5-dihydro-1H-benzo[g]indole-2-carboxylic Acid]
2 | 4 | 4 | 8 | 8 | > 128 | > 128 | 0.252 | 0.695 | 4 | 4 | 4 | 8 | Cc1cc(C)cc(-c2c(C(=O)O)[nH]c3c2CCc2ccccc2-3)c1 [Example 48, 3-(3,5-dimethylphenyl)-4,5-dihydro-1H-benzo[g]indole-2-carboxylic Acid]
3 | 2 | 2 | 4 | 4 | > 128 | > 128 | 0.211 | 25 | – | 2 | 2 | 4 | O=C(O)c1[nH]c2c(c1-c1cccc(Cl)c1Cl)CCc1ccccc1-2 [Example 50, 3-(2,3-dichlorophenyl)-4,5-dihydro-1H-benzo[g]indole-2-carboxylic Acid]
4 | 4 | 4 | 8 | 8 | > 128 | > 128 | 0.604 | 11.1 | 4 | 4 | 8 | 8 | O=C(O)c1[nH]c2c(c1-c1ccncc1)CCc1ccccc1-2 [Example 51, 3-(pyridin-4-yl)-4,5-dihydro-1H-benzo[g]indole-2-carboxylic Acid]
5 | 4 | 4 | 8 | 8 | > 128 | > 128 | 0.158 | 4.87 | – | 2 | 2 | 4 | O=C(O)c1[nH]c2c(c1-c1cc(F)cc(F)c1)CCc1ccccc1-2 [Example 52, 3-(3,5-difluorophenyl)-4,5-dihydro-1H-benzo[g]indole-2-carboxylic Acid]
